In patent US20110071115A1, “PHARMACEUTICALLY USEFUL HETEROCYCLE-SUBSTITUTED LACTAMS” (CYLENE PHARMACEUTICALS, INC., priority 2009, published 2011):
Like-named read-outs stand apart in the source and are kept apart here.

Key:
MDAMB453 = assay: Alamar Blue (AB) cell proliferation assay, MDAMB453; type: cell-based
Method: (§1) A representative cell-proliferation assay protocol using Alamar Blue dye (stored at 4° C., use 20 ul per well) is described hereafter.
(§2) c. Plate 4,000-5,000 cells per well in 100 μl of medium and seed into a 96-well plate according to the following plate layout. Add cell culture medium only to wells B10 to B12. Wells B1 to B9 have cells but no compound added.
(§3) d. Add 100 μl of 2× drug dilution to each well in a concentration shown in the plate layout above. At the same time, add 100 μl of media into the control wells (wells B10 to B12). Total volume is 200 μl/well.
(§4) e. Incubate four (4) days at 37° C., 5% CO2 in a humidified incubator.
(§5) f. Add 20 μl Alamar Blue reagent to each well.
(§6) g. Incubate for four (4) hours at 37° C., 5% CO2 in a humidified incubator.
(§7) h. Record fluorescence at an excitation wavelength of 544 nm and emission wavelength of 590 nm using a microplate reader.
(§8) In the assays, cells are cultured with a test compound for approximately four days, the dye is then added to the cells and fluorescence of […] dye is detected after approximately four hours. Different types of cells can be utilized in the assays (e.g., HCT-116 human colorectal carcinoma cells, PC-3 human prostatic cancer cells, MDA-MB231 human breast cancer cells, K-562 human chronic myelogenous leukemia (CML) cells, MiaPaca human pancreatic carcinoma cells, MV-4 human acute myeloid leukemia cells, and BxPC3 human pancreatic adenocarcinoma cells).

recombinant human Pim-2 = recombinant human Pim-2 (Homo sapiens, UniProt Q9P1W9); assay: PIM-2 assay (33P-ATP filter plate); type: biochemical; conditions: 2.5 uM compound
Sequence of recombinant human Pim-2 (Q9P1W9 whole entry): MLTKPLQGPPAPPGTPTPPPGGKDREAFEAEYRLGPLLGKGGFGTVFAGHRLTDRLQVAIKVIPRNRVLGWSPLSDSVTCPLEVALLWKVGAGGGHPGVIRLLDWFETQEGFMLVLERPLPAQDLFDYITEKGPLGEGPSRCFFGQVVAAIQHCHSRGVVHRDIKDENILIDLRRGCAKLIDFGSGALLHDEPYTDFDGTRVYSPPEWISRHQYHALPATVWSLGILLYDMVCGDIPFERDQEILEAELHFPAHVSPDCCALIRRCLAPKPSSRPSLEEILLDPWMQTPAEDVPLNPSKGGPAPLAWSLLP
Method: Test compounds dissolved and diluted in DMSO (2 μl) were added to a reaction mixture comprising 10 μl of 5× Reaction Buffer (40 mM MOPS pH 7.0, 5 mM EDTA), 10 of recombinant human Pim-2 solution (4 ng Pim-2 dissolved in dilution buffer (20 mM MOPS pH 7.0; EDTA 1 mM; 5% Glycerol; 0.01% Brij 35; […]; […] 2-mercaptoethanol; 1 mg/ml BSA)) and 8 ul of water. Reactions were initiated by the addition of 10 ul of ATP Solution (49% (15 mM MgCl2; 75 uM ATP) 1% ([γ-33P]ATP: Stock 1 mCi/100 μl; 3000 Ci/mmol (Perkin Elmer)) and 10 ul of substrate peptide solution (RSRSSYPAGT, dissolved in water at a concentration of 1 mM), Reactions were maintained for […] at 30° C. The reactions were quenched with 100 ul of 0.75% phosphoric acid, then transferred to and filtered through a Phosphocellulose filter plate (Millipore, MSPH-N6B-50). After washing each well 4 times with 0.75% phosphoric acid, scintillation fluid (20 μL) was added to each well and the residual radioactivity was measured using a Wallac luminescence counter.

[1] = system: BxPC3 human pancreatic adenocarcinoma cells; assay: Alamar Blue (AB) cell proliferation assay, BxPC3; type: cell-based
Method: as §1, §2, §3, §4, §5, §6, §7, §8

recombinant human CK2 = target: T1, recombinant human CK2 (Homo sapiens, UniProt P68400); assay: CK2 assay (cell-free, 33P-ATP filter plate); type: biochemical
T1 construct: purchased Upstate
T1 sequence (P68400 whole entry): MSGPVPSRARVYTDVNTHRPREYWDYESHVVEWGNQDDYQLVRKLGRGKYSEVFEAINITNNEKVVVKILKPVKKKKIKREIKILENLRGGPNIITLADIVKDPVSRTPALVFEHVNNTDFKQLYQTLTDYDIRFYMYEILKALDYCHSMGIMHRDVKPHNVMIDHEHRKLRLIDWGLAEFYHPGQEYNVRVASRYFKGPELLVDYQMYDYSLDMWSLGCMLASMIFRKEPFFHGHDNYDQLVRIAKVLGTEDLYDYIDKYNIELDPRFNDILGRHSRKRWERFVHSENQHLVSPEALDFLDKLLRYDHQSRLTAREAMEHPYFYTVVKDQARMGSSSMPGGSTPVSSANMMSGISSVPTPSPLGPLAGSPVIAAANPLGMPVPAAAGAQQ
T1 sequence (P67870 whole entry partner): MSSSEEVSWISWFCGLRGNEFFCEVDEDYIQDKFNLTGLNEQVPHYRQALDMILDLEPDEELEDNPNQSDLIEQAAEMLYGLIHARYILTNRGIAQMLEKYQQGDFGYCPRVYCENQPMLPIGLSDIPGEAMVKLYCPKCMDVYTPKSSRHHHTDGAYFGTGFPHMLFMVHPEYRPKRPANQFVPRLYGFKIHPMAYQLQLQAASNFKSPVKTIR
Method: Modulatory activity of compounds described herein was assessed in vitro in cell-free CK2 assays by the following method.
Test compounds in aqueous solution were added at a volume of 10 microliters, to a reaction mixture comprising 10 microliters Assay Dilution Buffer (ADB; 20 mM MOPS, pH 7.2, 25 mM beta-glycerolphosphate, 5 mM EGTA, 1 mM sodium orthovanadate and 1 mM dithiothreitol), 10 microliters of substrate peptide (RRRDDDSDDD, dissolved in ADB at a concentration of 1 mM), 10 microliters of recombinant human CK2 (25 ng dissolved in ADB; Upstate). Reactions were initiated by the addition of 10 microliters of ATP Solution (90% 75 mM MgCl2, 75 micromolar ATP dissolved in ADB; 10% [γ-^33P]ATP (stock 1 mCi/100 μl; 3000 Ci/mmol (Perkin Elmer) and maintained for 10 minutes at 30° C. The reactions were quenched with 100 microliters of 0.75% phosphoric acid, then transferred to and filtered through a phosphocellulose filter plate (Millipore). After washing each well 5 times with 0.75% phosphoric acid, the plate was dried under vacuum for 5 min and, following the addition of 15 ul of scintilation fluid to each well, the residual radioactivity was measured using a Wallac luminescence counter.

SMILES | IC50 (MDAMB453; MDAMB453 cells) [µM] | PIM2: % inh 2.5 uM (recombinant human Pim-2) [%] | IC50 [1] [µM] | IC50 (recombinant human CK2) [µM] | IC50 (MDAMB453; Homo sapiens, MDA-MB-453, MDAMB453 cells) [µM] | inhibition at 2.5 µM (recombinant human Pim-2; read-out: PIM2: % inh 2.5 uM) [%] | IC50 ([1]; Homo sapiens, BXPC-3) [µM]
CC(N)C(=O)OCN1C(=O)C/C(=C\c2cnn3c(NC4CC4)cc(Nc4cc(Cl)ccc4F)nc23)C1=O (stereo not drawn) [Example P7, (E)-(3-((5-(5-chloro-2-fluorophenylamino)-7-(cyclopropylamino)pyrazolo[1,5-a]pyrimidin-3-yl)methylene)-2,5-dioxopyrrolidin-1-yl)methy 2-aminopropanoate] | 10.5 | 49.047 | 12.4 | < 1 | – | – | –
C[C@H](Nc1cc(NC2CC2)n2ncc(/C=C3\CC(=O)NC3=O)c2n1)c1ccccc1 [Example A12] | – | – | – | < 1 | 6.09 | 6.72 | 11.3
O=C(O)CCCC(=O)OCN1C(=O)C/C(=C\c2cnn3c(NC4CC4)cc(Nc4cc(Cl)ccc4F)nc23)C1=O [Example P2] | > 30 | 73.771 | > 30 | < 0.1 | – | – | –
